Drawing on US7514448B2, “Azaindoles useful as inhibitors of rock and other protein kinases” (Vertex Pharmaceuticals Incorporated, priority 2004, dated 2009), this text covers Ki for 26 compounds.

The target of test [1] is PKA (Homo sapiens, UniProt P17612). Nature of the test: PKA inhibition assay, coupled enzyme. In kind it is biochemical. Conditions: average Ki if more than one determined. On the procedure: Compounds were screened for their ability to inhibit PKA using a standard coupled enzyme assay (Fox et al., Protein Sci, 1998, 7, 2249). Assays were carried out in a mixture of 100 mM HEPES (pH 7.5), 10 mM MgCl2, 25 mM NaCl, 1 mM DTT and 3% DMSO. Final substrate concentrations in the assay were 50 μM ATP (Sigma Chemicals) and 80 μM peptide (Kemptide, American Peptide, Sunnyvale, Calif.). Assays were carried out at 30° C. and 18 nM PKA. Final concentrations of the components of the coupled enzyme system were 2.5 mM phosphoenolpyruvate, 300 μM NADH, 30 μg/ml pyruvate kinase and 10 μg/ml lactate dehydrogenase.
An assay stock buffer solution was prepared containing all of the reagents listed above, with the exception of ATP, and the test compound of the present invention. […] The plate was preincubated for 10 minutes at 30° C. and the reaction initiated by addition of 5 μl of ATP (final concentration 50 μM). Initial reaction rates were determined with a Molecular Devices SpectraMax Plus plate reader over a 15 minute time course. IC50 and Ki data were calculated from non-linear regression analysis using the Prism software package (GraphPad Prism version 3.0a for Macintosh, GraphPad Software, San Diego Calif., USA).

Test [2] addresses ROCK (Homo sapiens, UniProt Q13464). Briefly: ROCK radioactive assay ("33P"). Conditions: radioactive assay; average Ki if more than one determined; read-out: ROCK 33P Ki. The format is biochemical. An excerpt:
If more than one value of Ki has been determined, the average Ki is indicated. If no value is indicated, then the Ki was not determined.

Sequence of ROCK (Q13464 whole entry): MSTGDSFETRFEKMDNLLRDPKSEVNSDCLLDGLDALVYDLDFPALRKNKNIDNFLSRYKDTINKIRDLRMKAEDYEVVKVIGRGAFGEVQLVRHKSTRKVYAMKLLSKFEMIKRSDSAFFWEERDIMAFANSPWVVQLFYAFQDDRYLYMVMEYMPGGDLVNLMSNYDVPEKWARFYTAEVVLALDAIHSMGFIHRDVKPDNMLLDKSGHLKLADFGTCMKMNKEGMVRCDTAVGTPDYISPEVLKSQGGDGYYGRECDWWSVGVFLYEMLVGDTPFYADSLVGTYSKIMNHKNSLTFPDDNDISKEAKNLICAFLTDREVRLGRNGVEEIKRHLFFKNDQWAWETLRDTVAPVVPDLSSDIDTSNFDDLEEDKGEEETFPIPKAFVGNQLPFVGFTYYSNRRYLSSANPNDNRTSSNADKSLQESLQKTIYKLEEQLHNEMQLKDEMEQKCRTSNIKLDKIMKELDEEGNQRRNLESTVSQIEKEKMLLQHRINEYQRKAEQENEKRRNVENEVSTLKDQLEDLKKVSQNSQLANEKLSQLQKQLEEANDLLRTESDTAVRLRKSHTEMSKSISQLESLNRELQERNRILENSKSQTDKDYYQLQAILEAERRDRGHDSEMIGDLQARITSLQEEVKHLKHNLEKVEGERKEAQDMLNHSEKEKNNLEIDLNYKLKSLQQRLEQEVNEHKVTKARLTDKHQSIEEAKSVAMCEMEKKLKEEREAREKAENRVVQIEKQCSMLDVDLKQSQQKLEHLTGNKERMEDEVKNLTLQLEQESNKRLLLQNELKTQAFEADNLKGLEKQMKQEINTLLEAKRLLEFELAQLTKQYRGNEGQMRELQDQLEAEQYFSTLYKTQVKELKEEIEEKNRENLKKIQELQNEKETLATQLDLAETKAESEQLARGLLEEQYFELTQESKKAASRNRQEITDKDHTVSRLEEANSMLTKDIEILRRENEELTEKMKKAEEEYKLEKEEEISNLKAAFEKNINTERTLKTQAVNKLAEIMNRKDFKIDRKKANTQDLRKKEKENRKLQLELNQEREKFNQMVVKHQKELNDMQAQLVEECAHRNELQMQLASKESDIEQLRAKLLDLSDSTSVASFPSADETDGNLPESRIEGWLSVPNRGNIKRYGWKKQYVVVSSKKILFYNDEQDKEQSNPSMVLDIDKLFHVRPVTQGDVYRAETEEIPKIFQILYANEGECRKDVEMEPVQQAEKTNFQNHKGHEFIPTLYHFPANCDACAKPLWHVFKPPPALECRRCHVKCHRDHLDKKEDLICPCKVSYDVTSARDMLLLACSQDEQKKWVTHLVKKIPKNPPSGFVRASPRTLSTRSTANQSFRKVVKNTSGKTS

What is called Ki is the equilibrium dissociation constant of an inhibitor or competing ligand from its target. `COc1cccc(CC(=O)Nc2nc(-c3c[nH]c4ncccc34)cs2)c1` [I-2] yielded a Ki in test [1] below 500 nM.
For the compound `O=C(Cc1cccc(O)c1)Nc1nc(-c2c[nH]c3ncccc23)cs1` [I-12], the Ki in test [1] was below 500 nM.
Consider `O=C(NCc1cccc(S(=O)(=O)N2CCOCC2)c1)c1csc(-c2c[nH]c3ncccc23)c1` [II-130], for which the inhibitory constant (Ki) was 500 to 5000 nM in test [1] and below 500 nM in test [2].
For `O=C(Cc1ccccc1)Nc1nc(-c2c[nH]c3ncc(O)cc23)cs1` [II-131], the inhibition constant Ki in test [1] and in test [2] was below 500 nM each time.
In the case of `CS(=O)(=O)Nc1cccc(CC(=O)Nc2nc(-c3c[nH]c4ncc(O)cc34)cs2)c1` [II-132], the Ki in test [1] is 500 to 5000 nM; in test [2], below 500 nM.
For the compound `N#CC1(C(=O)Nc2nc(-c3c[nH]c4ncccc34)cs2)CC1` [II-133], the Ki in test [1] and in test [2] was below 500 nM each time.
For `CC(=O)Nc1nc(-c2c[nH]c3ncccc23)cs1` [II-134], the inhibitory constant (Ki) was 500 to 5000 nM in test [1] and below 500 nM in test [2].
Consider `O=C(Cc1cccc(OCCCC2CCNCC2)c1)Nc1nc(-c2c[nH]c3ncc(F)cc23)cs1` [II-135], for which the Ki in test [1] and in test [2] was below 500 nM in each case.
With `CN1CCN(CCOc2cccc(CC(=O)Nc3nc(-c4c[nH]c5ncc(F)cc45)cs3)c2)CC1` [II-136], the Ki in test [1] is 500 to 5000 nM; in test [2] it was below 500 nM.
Regarding `CN1CCN(CCCOc2cccc(CC(=O)Nc3nc(-c4c[nH]c5ncc(F)cc45)cs3)c2)CC1` [II-137], the inhibitory constant (Ki) in test [1] is 500 to 5000 nM; in test [2] it was below 500 nM.
Take `COCC(=O)Nc1nc(-c2c[nH]c3ncccc23)cs1` [II-142]: the Ki was 500 to 5000 nM in test [1] and below 500 nM in test [2].
The matching figures for `CC(O)C(=O)Nc1nc(-c2c[nH]c3ncccc23)cs1` (centres unmarked) [II-143]: 500 to 5000 nM and below 500 nM.
The matching figures for `CO[C@@H](C)C(=O)Nc1nc(-c2c[nH]c3ncccc23)cs1` [II-144]: 500 to 5000 nM and below 500 nM.
For the compound `CC(=O)N[C@@H](C)C(=O)Nc1nc(-c2c[nH]c3ncccc23)cs1` [II-145], the Ki in test [1] was 500 to 5000 nM; in test [2] it was below 500 nM.
Turning to `O=C1CC[C@@H](C(=O)Nc2nc(-c3c[nH]c4ncccc34)cs2)O1` [II-146], the Ki in test [1] is 500 to 5000 nM; in test [2], below 500 nM.
The matching figures for `O=C1NCC(C(=O)Nc2nc(-c3c[nH]c4ncccc34)cs2)N1` (centres unmarked) [II-147]: below 500 nM and below 500 nM.
For `O=C1CC[C@@H](C(=O)Nc2nc(-c3c[nH]c4ncccc34)cs2)N1` [II-148] the same measures were below 500 nM and below 500 nM.
Take `CC(=O)NCC(=O)Nc1nc(-c2c[nH]c3ncccc23)cs1` [II-149]: the inhibition constant Ki is 500 to 5000 nM in test [1] and below 500 nM in test [2].
`COc1ccc(CC(=O)Nc2nc(-c3c[nH]c4ncc(F)cc34)cs2)c(Cl)c1` [II-150]: the Ki in test [1] and in test [2] was below 500 nM each time.
For the compound `CS(=O)(=O)Nc1ccc(F)c(CC(=O)Nc2nc(-c3c[nH]c4ncc(F)cc34)cs2)c1` [II-151], the inhibition constant Ki in test [1] and in test [2] was below 500 nM throughout.
On to `O=C1C[C@H](C(=O)Nc2nc(-c3c[nH]c4ncccc34)cs2)N1` [II-152], for which the Ki in test [1] and in test [2] was below 500 nM each time.
In the case of `O=C1CCC(C(=O)Nc2nc(-c3c[nH]c4ncccc34)cs2)N1` (centres unmarked) [II-153], the inhibition constant Ki in test [1] was 500 to 5000 nM; in test [2], below 500 nM.
In the case of `O=C(Nc1nc(-c2c[nH]c3ncccc23)cs1)C1CCCO1` (centres unmarked) [II-154], the Ki in test [1] and in test [2] was below 500 nM in each case.
On to `O=C1CC[C@H](C(=O)Nc2nc(-c3c[nH]c4ncccc34)cs2)O1` [II-155], for which the inhibition constant (Ki) in test [1] and in test [2] was below 500 nM throughout.
As for `CC(=O)N[C@H](C)C(=O)Nc1nc(-c2c[nH]c3ncccc23)cs1` [II-156], the inhibition constant (Ki) in test [1] was 500 to 5000 nM; in test [2], below 500 nM.
The matching figures for `O=C(CO)Nc1nc(-c2c[nH]c3ncccc23)cs1` [II-157]: 500 to 5000 nM and below 500 nM.
